This passage reports EC50, CC50 and IC50 results from ChEMBL document CHEMBL1129193, “Isosteres of nucleoside triphosphates” (Bioorg Med Chem Lett, 1996).

The EC50 is the concentration that produces a half-maximal response. The low end stands for an effect from little substance, the high end for a need for much substance. The CC50 is the concentration that lowers cell viability or growth by half. A higher CC50 goes with lower toxicity to the cells. By IC50 is commonly meant the point on the concentration scale where inhibition reaches its midpoint.

The test system of experiment [1] is C8166. The experiment in a line: Compound was evaluated for anti-HIV activity against HIV-1 infected C8166 cell lines. In kind it is functional, cell-based. The following applies: Homo sapiens.
Experiment [2] concerns C8166. The experiment in a line: Concentration of compound required to reduce viability of C8166 cells by 50%. In kind it is functional. The following applies: Homo sapiens.
Experiment [3] deals with CCRF-CEM. The experiment in a line: Concentration of compound required to reduce viability of CEM/0 cells by 50%. The experiment is classed as functional. The settings on record: Homo sapiens.
The test system of experiment [4] is CCRF-CEM. Nature of the experiment: Compound was evaluated for anti-HIV activity against HIV-1 infected CEM/0 cell lines. The experiment is classed as functional, cell-based. The settings on record: Homo sapiens.
Experiment [5] deals with CCRF-CEM. Nature of the experiment: Compound was evaluated for anti-HIV activity against HIV-2 infected CEM/0 cell lines. In kind it is functional, cell-based. The following applies: Homo sapiens.
The target in experiment [6] is Human immunodeficiency virus type 1 reverse transcriptase (Human immunodeficiency virus 1, UniProt Q72547). The experiment in a line: Inhibition of HIV-1 reverse transcriptase.
The next experiment concerns CEM-TK(-). The experiment in a line: Compound was evaluated for anti-HIV activity against HIV-2 infected CEM/TK- cell lines. The settings on record: Homo sapiens.
The species named for a further experiment is Homo sapiens. The experiment in a line: Compound was evaluated for anti-HIV activity against HIV-2 infected CEM/TK- cell lines. In kind it is functional, organism-based.

Take `Cc1cn(C2C=CC(COC(=O)CC(O)(CC(=O)OCc3ccccc3)C(=O)OCc3ccccc3)O2)c(=O)[nH]c1=O` (centres undefined): the EC50 in the experiment with C8166 [1] was determined as 1.6 µM; in the experiment with CCRF-CEM [4] it was 1.6 µM; in the experiment on CCRF-CEM [5] it was 0.55 µM; in the experiment with CEM-TK(-) it was 87 µM. For the same molecule, the figures for the CC50 in the experiment with C8166 [2] and in the experiment on CCRF-CEM [3] were 500 µM and 64 µM, respectively. Besides, in experiment [6], the IC50 was > 100 µM.
In the case of `Cc1cn(C2C=CC(COC(=O)CC(O)(CC(=O)O)C(=O)O)O2)c(=O)[nH]c1=O` (centres undefined), the EC50 in the experiment with C8166 [1] is 3.2 µM; in the experiment with CCRF-CEM [4] it was 4 µM; in the experiment with CCRF-CEM [5] it was 4 µM; in the experiment listed under Homo sapiens, > 250 µM. Also, the CC50 in the experiment on C8166 [2] was found to be 500 µM; with CCRF-CEM [3], 209 µM. The IC50 in experiment [6] was > 100 µM.
Turning to `Cc1cn(C2C=CC(CNC(=O)CC(O)(CC(=O)O)C(=O)O)O2)c(=O)[nH]c1=O` (centres undefined), the concentration for a half-maximal effect (EC50) in the experiment with C8166 [1] was > 2500 µM. Further, the 50% cytotoxic concentration (CC50) with C8166 [2] was > 2500 µM. The half-inhibitory concentration (IC50) in experiment [6] is > 100 µM.
Take `C=CCOC(=O)CC(O)(CC(=O)NCC1C=CC(n2cc(C)c(=O)[nH]c2=O)O1)C(=O)OCC=C` (centres undefined): the EC50 with C8166 [1] was 400 µM; with CCRF-CEM [4] it was > 250 µM; in the experiment on CCRF-CEM [5], > 250 µM. The CC50 with C8166 [2] is > 1000 µM; with CCRF-CEM [3] it was > 250 µM. Moreover, the IC50 in experiment [6] was > 100 µM.
Turning to `COC(=O)CC(O)(CC(=O)NCC1C=CC(n2cc(C)c(=O)[nH]c2=O)O1)C(=O)OC` (centres undefined), the EC50 is 1000 µM in the experiment on C8166 [1], > 250 µM with CCRF-CEM [4] and > 250 µM in the experiment on CCRF-CEM [5]. Moreover, the results for the CC50 in the experiment with C8166 [2] and in the experiment on CCRF-CEM [3] were > 1000 µM and > 250 µM, respectively. In experiment [6], the IC50 is > 100 µM.
Take `COC(=O)CC1(CC(=O)OCC2C=CC(n3cc(C)c(=O)[nH]c3=O)O2)OCOC1=O` (centres undefined): the EC50 was 0.8 µM in the experiment with C8166 [1], 0.95 µM in the experiment on CCRF-CEM [4], 2.5 µM in the experiment on CCRF-CEM [5] and 110 µM in the experiment on CEM-TK(-). In addition, the CC50 with C8166 [2] was 400 µM; in the experiment with CCRF-CEM [3], 100 µM. Further, the IC50 in experiment [6] is > 100 µM.
Regarding `C=CCOC(=O)CC(O)(CC(=O)OCC1C=CC(n2cc(C)c(=O)[nH]c2=O)O1)C(=O)OCC=C` (centres undefined), the concentration for a half-maximal effect (EC50) was found to be 1 µM in the experiment with C8166 [1], 0.7 µM with CCRF-CEM [4], 0.55 µM in the experiment with CCRF-CEM [5] and 72 µM with CEM-TK(-). Also, the CC50 turned out to be 500 µM with C8166 [2] and 69 µM in the experiment on CCRF-CEM [3]. In addition, the IC50 in experiment [6] was > 100 µM.
With `Cc1cn(C2C=CC(COC(=O)CC3(CC(=O)O)OCOC3=O)O2)c(=O)[nH]c1=O` (centres undefined), the EC50 with C8166 [1] was 4 µM; in the experiment on CCRF-CEM [4], 3.47 µM; with CCRF-CEM [5] it was 4.5 µM; with CEM-TK(-), > 250 µM. Further, the results for the half-maximal cytotoxic concentration (CC50) in the experiment on C8166 [2] and in the experiment with CCRF-CEM [3] were 1000 µM and > 250 µM, respectively. Also, in experiment [6], the 50% inhibitory concentration (IC50) is > 100 µM.
With `C=CCOC(=O)CC1(CC(=O)OCC2C=CC(n3cc(C)c(=O)[nH]c3=O)O2)OCOC1=O` (centres undefined), the EC50 in the experiment with C8166 [1] amounted to 0.8 µM; in the experiment on CCRF-CEM [4], 2 µM; with CCRF-CEM [5], 1.6 µM; with CEM-TK(-) it was 78 µM. Further, the CC50 in the experiment on C8166 [2] was determined as 500 µM; with CCRF-CEM [3], 179 µM. Besides, in experiment [6], the IC50 is > 100 µM.
Turning to `Cc1cn(C2C=CC(COC(=O)CC3(CC(=O)OCc4ccccc4)OCOC3=O)O2)c(=O)[nH]c1=O` (centres undefined), the EC50 in the experiment with C8166 [1] is 8 µM; in the experiment on CCRF-CEM [4] it was 1.35 µM; in the experiment on CCRF-CEM [5], 3 µM; in the experiment with CEM-TK(-) it was > 250 µM. Besides, the figures for the CC50 with C8166 [2] and in the experiment with CCRF-CEM [3] were 400 µM and 92.8 µM, respectively.
As to `Cc1cn([C@H]2C[C@H](N=[N+]=[N-])[C@@H](CO)O2)c(=O)[nH]c1=O` [ZIDOVUDINE], the values for the EC50 in the experiment with C8166 [1], in the experiment on CCRF-CEM [5] and in the experiment with CEM-TK(-) were 0.016 µM, 0.006 µM and > 250 µM, respectively. For the same molecule, the results for the CC50 in the experiment on C8166 [2] and in the experiment with CCRF-CEM [3] were > 1000 µM and > 250 µM, respectively. The IC50 in experiment [6] was > 100 µM.
